Reference: patent US10071133B2, “Method for destroying exosomes, kit for destroying exosomes, and method for isolating exosomes derived from normal cells” (priority 2015, dated 2018)
Ends that are not written are not given here.

What follows are molecules tested on exosome fraction B derived from human breast cancer cells (MDA-MB-231-luc-D3H2LN) (assay: Extraction of microRNA (miR-21) from exosomes derived from human breast cancer cells, real-time PCR). Settings: 100 μM peptide, 1×10^11 particles/mL exosomes, 0.4 U/μL RNase inhibitor, 37° C., 24 hours; without peptide 8×10^−14M.
Type: biochemical
Method: (§1) A cell suspension of cell line MDA-MB-231-luc-D3H2LN derived from human breast cancer (=MM231-luc-D3H2LN, provided by the National Cancer Center Research Institute) was seeded in a dish containing RPMI 1640 medium (manufactured by Thermo Fisher Scientific Inc.) containing 10% fetal bovine serum. Subsequently, the cell line was grown at 37° C. under the condition that CO2 concentration was set to 5 volume % using a CO2 incubator, and then the medium was replaced with Advanced RPMI 1640 medium (manufactured by Thermo Fisher Scientific Inc.), followed by culturing for 48 hours, and therefore the culture solution containing exosomes was obtained. This culture solution was centrifuged at 2,000 G for 10 minutes to remove the precipitate, followed by centrifugation at 110,000 G for 70 minutes to precipitate the exosomes, and therefore an exosome fraction B was recovered. The recovered exosome fraction B was suspended in a phosphate buffered saline (PBS) and then stored at 4° C. Storage samples were lightly suspended with a vortex mixer (vibration mixer) before use.
(§2) MicroRNA (miR-21 or miR-16) in the reaction solution was subjected to reverse transcription PCR using reverse transcription primers (manufactured by Thermo Fisher Scientific Inc., Taqman microRNA Assays, RT primers, and hsa-mir-21 or hsa-mir-16) and a reverse transcriptase (manufactured by Thermo Fisher Scientific Inc., Taqman microRNA RT kit).
(§3) The reverse transcription PCR solution obtained by the above described method was processed and by comparing the number of cycles on a calibration curve of microRNA using Taqman Assay primer (manufactured by Thermo Fisher Scientific Inc., Taqman microRNA Assays, Taqman Assay primer, and hsa-mir-21 or hsa-mir-16) and Real-Time PCR Master Mixes (manufactured by Thermo Fisher Scientific Inc., TaqMan Universal PCR Master Mix II, w/UNG) with StepOnePlus Real-Time PCR System, MiR-21 or miR-16 was quantified. The calibration curve of microRNA was created using synthetic miR-21 (manufactured by Sigma-Aldrich Co. LLC.) or synthetic miR-16 (manufactured by Sigma-Aldrich Co. LLC.).
(§4) 10 μL of the exosome fraction was prepared such that PBS contains 1×10^11 particles/mL of the exosome fraction B derived from human breast cancer cells, various antimicrobial peptides shown in the following Table 2 adjusted to 100 μM, and 0.4 U/μL of RNase inhibitor (manufactured by Toyobo Co., Ltd.), followed by incubation by being left to stand at 37° C. for 24 hours.
MicroRNA eluted into the solution was purified and recovered from the incubated solution of Example 10 above and Comparative Example 6 above by the following method.
First, 160 μL of PBS was added to the reaction solution, and then the solution was added to a centrifugal filter (manufactured by Millipore Corporation, Amicon Ultra 0.5 mL, 100K filter) and centrifuged at 14,000 G for 2 minutes. Subsequently, 100 μL of the centrifuged filtrate was recovered and introduced into a 1.5 mL tube. Next, 350 μL of RLT buffer (manufactured by QIAGEN, attached with RNeasy mini kit) and 675 μL of ethanol were added and mixed in the 1.5 mL tube. The obtained mixture was separated into two parts, and each of the separates was added onto a spin column (manufactured by QIAGEN, attached with RNeasy mini kit) followed by centrifugation at 8,000 G for 15 seconds, and the entire amount of the mixture was passed through the spin column. Thereafter, 500 μL of RPE buffer (manufactured by QIAGEN, attached with RNeasy mini kit) was added thereto and centrifuged at 8,000 G for 15 seconds. Furthermore, 500 μL of the RPE buffer was added to the spin column once more and centrifuged at 8,000 G for 15 seconds. Thereafter, the spin column was centrifuged at 14,000 G for 1 minute to remove the residual RPE buffer. Next, 30 μL of RNase free water (manufactured by QIAGEN, attached with RNeasy mini kit) was added to the spin column, left for 1 minute, and then centrifuged at 14,000 G for 1 minute, and the eluate obtained thereby was recovered. […]
9R: amino acid sequence RRRRRNWMWC was tested, and the “Destructive activity (concentration of microRNA miR-21 in eluate)” value (from here on “Destructive activity”) was “B (the concentration of microRNA is 10×10^−14M to 50×10^−14M)”.
CCCCCCCCCCCCCCCC[N+](C)(C)C.[Br-] [1% CTAB, CTAB, reference compound] was tested, and the “Destructive activity” value was “D (the concentration of microRNA is less than 10×10^−14M)”.
For N=C(N)N [4M guanidine, guanidine, reference compound], the “Destructive activity” value was “D (the concentration of microRNA is less than 10×10^−14M)”.
In the case of CC[C@H](C)[C@H](NC(=O)CN)C(=O)NCC(=O)N[C@@H](C)C(=O)N[C@H](C(=O)N[C@@H](CC(C)C)C(=O)N[C@@H](CCCCN)C(=O)N[C@H](C(=O)N[C@@H](CC(C)C)C(=O)N[C@H](C(=O)N[C@H](C(=O)NCC(=O)N[C@@H](CC(C)C)C(=O)N1CCC[C@H]1C(=O)N[C@@H](C)C(=O)N[C@@H](CC(C)C)C(=O)N[C@H](C(=O)N[C@@H](CO)C(=O)N[C@@H](Cc1c[nH]c2ccccc12)C(=O)N[C@H](C(=O)N[C@@H](CCCCN)C(=O)N[C@@H](CCCNC(=N)N)C(=O)N[C@@H](CCCCN)C(=O)N[C@@H](CCCNC(=N)N)C(=O)N[C@@H](CCC(N)=O)C(=O)N[C@@H](CCC(N)=O)C(N)=O)[C@@H](C)CC)[C@@H](C)CC)[C@@H](C)O)[C@@H](C)O)C(C)C)C(C)C [Melittin], the “Destructive activity” value is reported as “A (the concentration of microRNA is 50×10^−14M or more)”.
With CCCCCCCCCCCCCCCCCCOP(=O)([O-])OCC[P+](C)(C)C [Octadecylphosphophosphoniumcholine, reference compound] the “Destructive activity” value was “D (the concentration of microRNA is less than 10×10^−14M)”.
For “(Gln^53)-Connexin 37 (51-58) [(Gln^53)-Connexin 37(51-58)]”, the “Destructive activity” value was “D (the concentration of microRNA is less than 10×10^−14M)”.
In the case of (HHPHG)3, the “Destructive activity” value is reported as “B (the concentration of microRNA is 10×10^−14M to 50×10^−14M)”.
In the case of (HHPHG) 2 (HHPHGHHPHG) [(HHPHG)2], the “Destructive activity” value is reported as “B (the concentration of microRNA is 10×10^−14M to 50×10^−14M)”.
With (HHPHG) 4 [(HHPHG)4] the “Destructive activity” value was “B (the concentration of microRNA is 10×10^−14M to 50×10^−14M)”.
In the case of Alloferon 1 (HGVSGHGQHGVHG), the “Destructive activity” value is reported as “D (the concentration of microRNA is less than 10×10^−14M)”.
In the case of Ascaphin-8, the “Destructive activity” value is reported as “B (the concentration of microRNA is 10×10^−14M to 50×10^−14M)”.
With “Benzalkonium-Cl [1% Benzalkonium-Cl, reference compound]” the “Destructive activity” value was “D (the concentration of microRNA is less than 10×10^−14M)”.
Buforin IIb was tested, and the “Destructive activity” value was “B (the concentration of microRNA is 10×10^−14M to 50×10^−14M)”.
“C-Reactive Protein (CRP) (174-185) (IYLGGPFSPNVL; UniProt P02741 192-203, looked up, fragment)” was tested, and the “Destructive activity” value was “D (the concentration of microRNA is less than 10×10^−14M)”.
With Caerin 1.1 the “Destructive activity” value was “A (the concentration of microRNA is 50×10^−14M or more)”.
For “Cecropin B (KWKVFKKIEKMGRNIRNGIVKAGPAIAVLGEAKAL-NH2)”, the “Destructive activity” value was “B (the concentration of microRNA is 10×10^−14M to 50×10^−14M)”.
For Defensin HNP-1, the “Destructive activity” value was “B (the concentration of microRNA is 10×10^−14M to 50×10^−14M)”.
With Dermaseptin the “Destructive activity” value was “B (the concentration of microRNA is 10×10^−14M to 50×10^−14M)”.
With “Dermcidin-1L (SSLLEKGLDGAKKAVGGLGKLGKDAVEDLESVGKGAVHDVKDVLDSVL)” the “Destructive activity” value was “D (the concentration of microRNA is less than 10×10^−14M)”.
For “Epinecidin-1 (GFIFHIIKGLFHAGKMIHGLV-NH2)”, the “Destructive activity” value was “B (the concentration of microRNA is 10×10^−14M to 50×10^−14M)”.
For Gageostatin C, the “Destructive activity” value was “D (the concentration of microRNA is less than 10×10^−14M)”.
In the case of “Hepcidin-20 (ICIFCCGCCHRSKCGMCCKT; ends and bridges not checked; cysteine pairing not given here; UniProt P81172 65-84, looked up)”, the “Destructive activity” value is reported as “D (the concentration of microRNA is less than 10×10^−14M)”.
In the case of Histatin-5, the “Destructive activity” value is reported as “B (the concentration of microRNA is 10×10^−14M to 50×10^−14M)”.
With Macropin 1 the “Destructive activity” value was “B (the concentration of microRNA is 10×10^−14M to 50×10^−14M)”.
In the case of Maculatin 3.1, the “Destructive activity” value is reported as “B (the concentration of microRNA is 10×10^−14M to 50×10^−14M)”.
For “Magainin I (GIGKFLHSAGKFGKAFVGEIMKS) [Megainin I]”, the “Destructive activity” value was “B (the concentration of microRNA is 10×10^−14M to 50×10^−14M)”.
NK-2 was tested, and the “Destructive activity” value was “B (the concentration of microRNA is 10×10^−14M to 50×10^−14M)”.
In the case of NRC-03, the “Destructive activity” value is reported as “B (the concentration of microRNA is 10×10^−14M to 50×10^−14M)”.
In the case of NRC-07, the “Destructive activity” value is reported as “B (the concentration of microRNA is 10×10^−14M to 50×10^−14M)”.
In the case of PTP7, the “Destructive activity” value is reported as “D (the concentration of microRNA is less than 10×10^−14M)”.
With Pardaxin 4 the “Destructive activity” value was “B (the concentration of microRNA is 10×10^−14M to 50×10^−14M)”.
With Sesquin (KTCENLADTY) the “Destructive activity” value was “D (the concentration of microRNA is less than 10×10^−14M)”.
For “Short α-helical peptides (2) (GIIKKIIKKIIKKIIKKI-NH2)”, the “Destructive activity” value was “B (the concentration of microRNA is 10×10^−14M to 50×10^−14M)”.
In the case of TsAP-2, the “Destructive activity” value is reported as “B (the concentration of microRNA is 10×10^−14M to 50×10^−14M)”.
Tuftsin was tested, and the “Destructive activity” value was “B (the concentration of microRNA is 10×10^−14M to 50×10^−14M)”.

The molecules below were run on exosome fraction B derived from human breast cancer cells versus exosome fraction derived from human mammary gland cells (MCF-10A, normal cells) (assay: Selectivity: miR-16 ratio, breast cancer exosomes versus mammary gland normal cell exosomes (Formula 1)). Settings: Formula 1, cancer/normal (MCF-10A); 100 μM peptide, 37° C., 24 hours.
Type: biochemical
Method: as §1
A cell suspension of cell line MCF 10A derived from human mammary epithelial cells (provided by the National Cancer Center Research Institute) was seeded in a dish containing Mammary Epithelium Cell Basal Medium (manufactured by Lonza). Subsequently, the cell line was grown at 37° C. under the condition that CO2 concentration was set to 5 volume % using a CO2 incubator, and then the medium was replaced with a fresh medium, followed by culturing for 48 hours, and the culture solution containing exosomes was obtained. This culture solution was centrifuged at 2,000 G for 10 minutes to remove the precipitate, followed by centrifugation at 110,000 G for 70 minutes to precipitate the exosomes, and an exosome fraction was recovered. The recovered exosome fraction was suspended in a phosphate buffered saline (PBS) and then stored at 4° C. Storage samples were lightly suspended with a vortex mixer (vibration mixer) before use.
as §2, §3
as §4, with “Table 4” for “Table 2”
Thereafter, the eluted MicroRNA (miR-16) was purified and recovered from the incubated solution by the same method as the above described method for extraction from the incubated solution of Examples 10 and 11 above and Comparative Examples 6 and 7 above. […]
Work on CC[C@H](C)[C@H](NC(=O)CN)C(=O)NCC(=O)N[C@@H](C)C(=O)N[C@H](C(=O)N[C@@H](CC(C)C)C(=O)N[C@@H](CCCCN)C(=O)N[C@H](C(=O)N[C@@H](CC(C)C)C(=O)N[C@H](C(=O)N[C@H](C(=O)NCC(=O)N[C@@H](CC(C)C)C(=O)N1CCC[C@H]1C(=O)N[C@@H](C)C(=O)N[C@@H](CC(C)C)C(=O)N[C@H](C(=O)N[C@@H](CO)C(=O)N[C@@H](Cc1c[nH]c2ccccc12)C(=O)N[C@H](C(=O)N[C@@H](CCCCN)C(=O)N[C@@H](CCCNC(=N)N)C(=O)N[C@@H](CCCCN)C(=O)N[C@@H](CCCNC(=N)N)C(=O)N[C@@H](CCC(N)=O)C(=O)N[C@@H](CCC(N)=O)C(N)=O)[C@@H](C)CC)[C@@H](C)CC)[C@@H](C)O)[C@@H](C)O)C(C)C)C(C)C [Melittin] yielded a mir-16 ratio of 42.
For Caerin 1.1, the mir-16 ratio was 27.

Same assay, conditions: from miR-16 ratio versus Comparative Example 8; breast cancer vs MCF-10A exosomes
With CC[C@H](C)[C@H](NC(=O)CN)C(=O)NCC(=O)N[C@@H](C)C(=O)N[C@H](C(=O)N[C@@H](CC(C)C)C(=O)N[C@@H](CCCCN)C(=O)N[C@H](C(=O)N[C@@H](CC(C)C)C(=O)N[C@H](C(=O)N[C@H](C(=O)NCC(=O)N[C@@H](CC(C)C)C(=O)N1CCC[C@H]1C(=O)N[C@@H](C)C(=O)N[C@@H](CC(C)C)C(=O)N[C@H](C(=O)N[C@@H](CO)C(=O)N[C@@H](Cc1c[nH]c2ccccc12)C(=O)N[C@H](C(=O)N[C@@H](CCCCN)C(=O)N[C@@H](CCCNC(=N)N)C(=O)N[C@@H](CCCCN)C(=O)N[C@@H](CCCNC(=N)N)C(=O)N[C@@H](CCC(N)=O)C(=O)N[C@@H](CCC(N)=O)C(N)=O)[C@@H](C)CC)[C@@H](C)CC)[C@@H](C)O)[C@@H](C)O)C(C)C)C(C)C [Melittin] the Selectivity was “B (evaluated as “B” in a case where the calculated miR-16 value was higher than the miR-16 ratio of Comparative Example 8)”.
With Caerin 1.1 the Selectivity was “B (evaluated as “B” in a case where the calculated miR-16 value was higher than the miR-16 ratio of Comparative Example 8)”.
